From patent publication US9839642B2, “Beta-tetrazolyl-propionic acids as metallo-beta-lactamase inhibitors” (priority 2014, dated 2017)
Read-outs that look alike come from different tables or passages of the source.

Legend:
[1] = tested on: Klebsiella pneumoniae expressing VIM-1 (IHMA599644); assay: Antibiotic potentiation activity: synergistic concentration (MITC95) with imipenem, growth by OD600; assay type: cell-based
In short: (§1)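 Colonies from overnight agar plates (35 °C) were suspended in saline and diluted 1:100 into 1.1× CAMHB. Inhibitor (final 200 μM to 0.195 μM) was combined with imipenem at 1 or 4 μg/ml, incubated 22–24 h at 35 °C, and absorbance read; MITC95 is the lowest inhibitor concentration giving 95% growth inhibition.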

[2] = tested on: Escherichia coli expressing NDM-1 (CLB30005); assay: as above; assay type: cell-based
In short: as §1

[3] = tested on: Serratia marcescens expressing IMP-1 (CL5741); assay: as above; assay type: cell-based
In short: as §1

IMP-1 = IMP-1 (Serratia marcescens, UniProt P52699); assay: Enzyme activity: determination of IC50, fluorescence assay with CCF2-FA substrate; assay type: biochemical; details: CCF2-FA 1.25 μM, 2 hours at 25° C., read-out: IMP1 IC50
Chain of IMP-1 (P52699 19-246, looked up, species assumed): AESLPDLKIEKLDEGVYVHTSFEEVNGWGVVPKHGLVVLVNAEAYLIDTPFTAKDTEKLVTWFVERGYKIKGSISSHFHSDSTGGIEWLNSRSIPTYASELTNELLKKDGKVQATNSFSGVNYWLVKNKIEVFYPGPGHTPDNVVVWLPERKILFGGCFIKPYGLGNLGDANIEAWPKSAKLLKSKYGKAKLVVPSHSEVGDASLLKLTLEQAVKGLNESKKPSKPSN
In short: (§2)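 Enzyme at 1 pM (NDM-1), 2 pM (IMP-1) or 30 pM (VIM-1) was incubated with inhibitor (20 μM to 0.00063 μM) and 1.25 μM CCF2-FA in 100 mM KH2PO4 pH 7, 0.005% Tween-20, 10 μM ZnSO4 for 2 hours at 25° C. Fluorescence was read at ex 405/em 460 nm; IC50 from 4-parameter fit.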

VIM-1 = VIM-1 (Pseudomonas aeruginosa, UniProt A0A0F7KYQ8); assay: as above; assay type: biochemical; details: CCF2-FA 1.25 μM, 2 hours at 25° C., read-out: VIM1 IC50
In short: as §2

NDM-1 = NDM-1 (Klebsiella pneumoniae, UniProt C7C422); assay: as above; assay type: biochemical; details: CCF2-FA 1.25 μM, 2 hours at 25° C., read-out: NDM1 IC50
Chain of NDM-1 (C7C422 29-270, looked up, species assumed): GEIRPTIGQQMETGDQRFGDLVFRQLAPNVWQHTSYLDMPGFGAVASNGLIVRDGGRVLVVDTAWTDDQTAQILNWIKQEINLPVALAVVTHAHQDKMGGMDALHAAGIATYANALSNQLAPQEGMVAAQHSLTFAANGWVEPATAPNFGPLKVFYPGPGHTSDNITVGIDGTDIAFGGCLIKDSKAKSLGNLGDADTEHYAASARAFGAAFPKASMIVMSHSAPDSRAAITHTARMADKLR
In short: as §2

[4] = 95% inhibition of bacterial growth, strain IHMA599644
[5] = 95% inhibition of bacterial growth, strain CLB30005
[6] = 95% inhibition of bacterial growth, strain CL5741
[7] = K. pneumoniae IHMA599644 (VIM-1), 95% inhibition of growth
[8] = E. coli CLB30005 (NDM-1), 95% inhibition of growth
[9] = S. marcescens CL5741 (IMP-1), 95% inhibition of growth

| SMILES | VIM1 KP599644 MITC95 [1, 4] [µM] | NDM1 EC30005 MITC95 [2, 5] [µM] | IMP1 SM5741 MITC95 [3, 6] [µM] | IC50 (IMP-1; enzyme 2 pM) [µM] | IC50 (VIM-1; enzyme 30 pM) [µM] | IC50 (NDM-1; enzyme 1 pM) [µM] | VIM1 KP599644 MITC95 [1, 7] [µM] | NDM1 EC30005 MITC95 [2, 8] [µM] | IMP1 SM5741 MITC95 [3, 9] [µM] | IC50 (IMP-1; IMP-1 enzyme 2 pM) [µM] | IC50 (VIM-1; VIM-1 enzyme 30 pM) [µM] | IC50 (NDM-1; NDM-1 enzyme 1 pM) [µM] |
| --- | --- | --- | --- | --- | --- | --- | --- | --- | --- | --- | --- | --- |
| CCC[C@H](C(=O)O)[C@H](Cc1ccc(-c2ccc3c(c2)CCNC3)cc1)c1nnn[nH]1 [Example 237, (2S)-2-[(1S)-2-[4-(1,2,3,4-tetrahydroisoquinolin-6-yl)phenyl]-1-(1H-tetrazol-5-yl)ethyl]pentanoic acid] | 38 | 9.4 | 4.7 | 0.088 | 0.004 | 0.088 |  |  |  |  |  |  |
| CCC[C@H](C(=O)O)[C@H](Cc1ccc(-c2cccc3c2CNC3=O)cc1)c1nnn[nH]1 [Example 238, (2S)-2-[(1S)-2-[4-(1-oxo-2,3-dihydro-1H-isoindol-4-yl)phenyl]-1-(1H-tetrazol-5-yl)ethyl]pentanoic acid] | 200 | 50 | 6.2 | 0.049 | 0.0017 | 0.0065 |  |  |  |  |  |  |
| CCC[C@H](C(=O)O)[C@H](Cc1ccc(-c2ccc3nncn3c2)cc1)c1nnn[nH]1 [Example 239, (2S)-2-[(1S)-1-(1H-tetrazol-5-yl)-2-(4-[1,2,4]triazolo[4,3-a]pyridin-6-ylphenyl)ethyl]pentanoic acid] | 75 | 38 | 38 | 0.19 | 0.0017 | 0.02 |  |  |  |  |  |  |
| CCC[C@H](C(=O)O)[C@H](Cc1ccc(-c2ccc(CN(C)C)cc2)cc1)c1nnn[nH]1 [Example 240, (2S)-2-[(1S)-2-{4′-[(dimethylamino)methyl]biphenyl-4-yl}-1-(1H-tetrazol-5-yl)ethyl]pentanoic acid] | 125 | 25 | 7.8 | 0.075 | 0.0065 | 0.1 |  |  |  |  |  |  |
| CCC[C@H](C(=O)O)[C@H](Cc1ccc(-c2ccc3ncnn3c2)cc1)c1nnn[nH]1 [Example 241, (2S)-2-[(1S)-1-(1H-tetrazol-5-yl)-2-(4-[1,2,4]triazolo[1,5-a]pyridin-6-ylphenyl)ethyl]pentanoic acid] | 38 | 75 | 9.4 | 0.058 | 0.00064 | 0.013 |  |  |  |  |  |  |
| CCC[C@H](C(=O)O)[C@H](Cc1ccc(-c2cnc(N(C)S(C)(=O)=O)nc2)cc1)c1nnn[nH]1 [Example 242, (2S)-2-[(1S)-2-(4-{2-[methyl(methyl-sulfonyl)amino]pyrimidin-5-yl}phenyl)-1-(1H-tetrazol-5-yl)ethyl]pentanoic acid] | 100 | 38 | 12.5 | 0.07 | 0.0016 | 0.0093 |  |  |  |  |  |  |
| CCC[C@H](C(=O)O)[C@H](Cc1ccc(C2=CCCN(C)C2)cc1)c1nnn[nH]1 [Example 243, (2S)-2-[(1S)-2-[4-(1-methyl-1,2,5,6-tetrahydropyridin-3-yl)phenyl]-1-(1H-tetrazol-5-yl)ethyl]pentanoic acid] | 25 | 18.8 | 25 | 0.5 | 0.0038 | 0.4 |  |  |  |  |  |  |
| CCC[C@H](C(=O)O)[C@H](Cc1ccc(-c2cnc(C)c(C)n2)cc1)c1nnn[nH]1 [Example 244, (2S)-2-[(1S)-2-[4-(5,6-dimethylpyrazin-2-yl)phenyl]-1-(1H-tetrazol-5-yl)ethyl]pentanoic acid] |  |  |  |  |  |  | 38 | 9.4 | 25 | 0.25 | 0.0048 | 0.066 |
| CCC[C@H](C(=O)O)[C@H](Cc1ccc(-c2ccc3c(c2)CNC3)cc1)c1nnn[nH]1 [Example 245, (2S)-2-[(1S)-2-[4-(2,3-dihydro-1H-isoindol-5-yl)phenyl]-1-(1H-tetrazol-5-yl)ethyl]pentanoic acid] |  |  |  |  |  |  | 25 | 9.4 | 6.2 | 0.085 | 0.0037 | 0.057 |
| CCC[C@H](C(=O)O)[C@H](Cc1ccc(-c2ccc(-c3nnn[nH]3)cc2)cc1)c1nnn[nH]1 [Example 246, (2S)-2-{(1S)-1-(1H-tetrazol-5-yl)-2-[4′-(1H-tetrazol-5-yl)biphenyl-4-yl]ethyl}pentanoic acid] |  |  |  |  |  |  | 100 | 38 | 6.2 | 0.0097 | 0.0022 | 0.0011 |
| CCC[C@H](C(=O)O)[C@H](Cc1ccc(-c2cnc3[nH]c(=O)[nH]c3c2)cc1)c1nnn[nH]1 [Example 247, (2S)-2-[(1S)-2-[4-(2-oxo-2,3-dihydro-1H-imidazo[4,5-b]pyridin-6-yl)phenyl]-1-(1H-tetrazol-5-yl)ethyl]pentanoic acid] |  |  |  |  |  |  | 100 | 31 | 16 | 0.092 | 0.00064 | 0.013 |
| CCC[C@@H](C(=O)O)[C@H](Cc1ccc(-c2ccc3nnn(C)c3c2)cc1)c1nnn[nH]1 [Example 248, (2R)-2-[(1S)-2-[4-(1-methyl-1H-benzotriazol-6-yl)phenyl]-1-(1H-tetrazol-5-yl)ethyl]pentanoic acid] |  |  |  |  |  |  | >200 | 100 | >200 | 4.7 | 0.23 | 0.7 |
| CCC[C@H](C(=O)O)[C@H](Cc1ccc(-c2cnc(CO)s2)cc1)c1nnn[nH]1 [Example 249] |  |  |  |  |  |  | 100 | 100 | >200 | 0.046 | 0.0019 | 0.0084 |
| CCC[C@H](C(=O)O)[C@H](Cc1ccc(-c2cnn(Cc3ccncc3)c2)cc1)c1nnn[nH]1 [Example 250, (2S)-2-[(1S)-2-{4-[1-(pyridin-4-ylmethyl)-1H-pyrazol-4-yl]phenyl}-1-(1H-tetrazol-5-yl)ethyl]pentanoic acid] |  |  |  |  |  |  | >200 | 25 | 200 | 0.082 | 0.0075 | 0.0096 |
| CCC[C@H](C(=O)O)[C@H](Cc1ccc(CN2CCN(C)CC2)cc1)c1nn[nH]n1 [Example 251, (2S)-2-[(1S)-2-{4-[(4-methylpiperazin-1-yl)methyl]phenyl}-1-(2H-tetrazol-5-yl)ethyl]pentanoic acid] |  |  |  |  |  |  | 75 | 8.3 | 38 | 1.3 | 0.43 | 0.33 |
| CCC[C@H](C(=O)O)[C@H](Cc1ccc(COCCN2CCOCC2)cc1)c1nn[nH]n1 [Example 252, (2S)-2-[(1S)-2-{4-[(2-morpholin-4-ylethoxy)methyl]phenyl}-1-(2H-tetrazol-5-yl)ethyl]pentanoic acid] |  |  |  |  |  |  | 50 | 15 | 150 | 0.8 | 0.089 | 0.18 |
